{"source": "PubChem BioAssay (NCI)", "assay_in_all_cases": "growth of human tumour cells (NCI), 48 h", "key": {"786-0 renal": {"test_system": "786-0 renal"}, "A498 renal": {"test_system": "A498 renal"}, "A549 NSCLC": {"test_system": "A549 NSCLC"}, "ACHN renal": {"test_system": "ACHN renal"}, "BT-549 breast": {"test_system": "BT-549 breast"}, "CAKI-1 renal": {"test_system": "CAKI-1 renal"}, "CCRF-CEM leukemia": {"test_system": "CCRF-CEM leukemia"}, "COLO 205 colon": {"test_system": "COLO 205 colon"}, "EKVX NSCLC": {"test_system": "EKVX NSCLC"}, "HCC-2998 colon": {"test_system": "HCC-2998 colon"}, "HCT-116 colon": {"test_system": "HCT-116 colon"}, "HCT-15 colon": {"test_system": "HCT-15 colon"}, "HL-60(TB) leukemia": {"test_system": "HL-60(TB) leukemia"}, "HOP-62 NSCLC": {"test_system": "HOP-62 NSCLC"}, "HOP-92 NSCLC": {"test_system": "HOP-92 NSCLC"}, "HS 578T breast": {"test_system": "HS 578T breast"}, "HT29 colon": {"test_system": "HT29 colon"}, "IGROV1 ovarian": {"test_system": "IGROV1 ovarian"}, "K-562 leukemia": {"test_system": "K-562 leukemia"}, "LOX IMVI melanoma": {"test_system": "LOX IMVI melanoma"}, "M14 melanoma": {"test_system": "M14 melanoma"}, "MALME-3M melanoma": {"test_system": "MALME-3M melanoma"}, "MDA-MB-435": {"test_system": "MDA-MB-435"}, "NCI-H23 lung": {"test_system": "NCI-H23 lung"}, "NCI-H460 lung": {"test_system": "NCI-H460 lung"}, "NCI/ADR-RES ovarian": {"test_system": "NCI/ADR-RES ovarian"}, "OVCAR-3 ovarian": {"test_system": "OVCAR-3 ovarian"}, "OVCAR-4 ovarian": {"test_system": "OVCAR-4 ovarian"}, "OVCAR-5 ovarian": {"test_system": "OVCAR-5 ovarian"}, "OVCAR-8 ovarian": {"test_system": "OVCAR-8 ovarian"}, "PC-3 prostate": {"test_system": "PC-3 prostate"}, "RPMI-8226 leukemia": {"test_system": "RPMI-8226 leukemia"}, "SF-295 CNS": {"test_system": "SF-295 CNS"}, "SF-539 CNS": {"test_system": "SF-539 CNS"}, "SK-MEL-2 melanoma": {"test_system": "SK-MEL-2 melanoma"}, "SK-MEL-5 melanoma": {"test_system": "SK-MEL-5 melanoma"}, "SK-OV-3 ovarian": {"test_system": "SK-OV-3 ovarian"}, "SN12C renal": {"test_system": "SN12C renal"}, "SNB-19 CNS": {"test_system": "SNB-19 CNS"}, "SW-620 colon": {"test_system": "SW-620 colon"}, "TK-10 renal": {"test_system": "TK-10 renal"}, "UACC-62 melanoma": {"test_system": "UACC-62 melanoma"}, "UO-31 renal": {"test_system": "UO-31 renal"}}, "note": "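Five concentrations, 48 hours, 96-well plates. TGI marks complete inhibition of growth.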", "data": [{"smiles": "Cc1cc(Br)c(O)c(-c2cscn2)c1", "values": [{"measurement": "TGI", "setting": "786-0 renal", "value": 8.39, "unit": "µM"}, {"measurement": "TGI", "setting": "A498 renal", "value": 76.8, "unit": "µM"}, {"measurement": "TGI", "setting": "A549 NSCLC", "value": 50.4, "unit": "µM"}, {"measurement": "TGI", "setting": "ACHN renal", "value": 36.6, "unit": "µM"}, {"measurement": "TGI", "setting": "BT-549 breast", "value": 24, "unit": "µM"}, {"measurement": "TGI", "setting": "CAKI-1 renal", "value": 62.6, "unit": "µM"}, {"measurement": "TGI", "setting": "CCRF-CEM leukemia", "value": 28.6, "unit": "µM"}, {"measurement": "TGI", "setting": "COLO 205 colon", "value": 51.8, "unit": "µM"}, {"measurement": "TGI", "setting": "EKVX NSCLC", "value": 96.1, "unit": "µM"}, {"measurement": "TGI", "setting": "HCC-2998 colon", "value": 36.2, "unit": "µM"}, {"measurement": "TGI", "setting": "HCT-116 colon", "value": 25.2, "unit": "µM"}, {"measurement": "TGI", "setting": "HCT-15 colon", "value": 18.4, "unit": "µM"}, {"measurement": "TGI", "setting": "HL-60(TB) leukemia", "value": 12.7, "unit": "µM"}, {"measurement": "TGI", "setting": "HOP-62 NSCLC", "value": 41.2, "unit": "µM"}, {"measurement": "TGI", "setting": "HOP-92 NSCLC", "value": 43.1, "unit": "µM"}, {"measurement": "TGI", "setting": "HS 578T breast", "value": 52.4, "unit": "µM"}, {"measurement": "TGI", "setting": "HT29 colon", "value": "> 100", "unit": "µM"}, {"measurement": "TGI", "setting": "IGROV1 ovarian", "value": 56.7, "unit": "µM"}, {"measurement": "TGI", "setting": "K-562 leukemia", "value": 25.2, "unit": "µM"}, {"measurement": "TGI", "setting": "LOX IMVI melanoma", "value": 23.1, "unit": "µM"}, {"measurement": "TGI", "setting": "M14 melanoma", "value": 44, "unit": "µM"}, {"measurement": "TGI", "setting": "MALME-3M melanoma", "value": 43.7, "unit": "µM"}, {"measurement": "TGI", "setting": "MDA-MB-435", "value": 41.9, "unit": "µM"}, {"measurement": "TGI", "setting": "NCI-H23 lung", "value": 35.6, "unit": "µM"}, {"measurement": "TGI", "setting": "NCI-H460 lung", "value": 49.6, "unit": "µM"}, {"measurement": "TGI", "setting": "NCI/ADR-RES ovarian", "value": 56.9, "unit": "µM"}, {"measurement": "TGI", "setting": "OVCAR-3 ovarian", "value": "> 100", "unit": "µM"}, {"measurement": "TGI", "setting": "OVCAR-4 ovarian", "value": 28.7, "unit": "µM"}, {"measurement": "TGI", "setting": "OVCAR-5 ovarian", "value": 36.4, "unit": "µM"}, {"measurement": "TGI", "setting": "OVCAR-8 ovarian", "value": 42.1, "unit": "µM"}, {"measurement": "TGI", "setting": "PC-3 prostate", "value": 27.7, "unit": "µM"}, {"measurement": "TGI", "setting": "RPMI-8226 leukemia", "value": 20.3, "unit": "µM"}, {"measurement": "TGI", "setting": "SF-295 CNS", "value": "> 100", "unit": "µM"}, {"measurement": "TGI", "setting": "SF-539 CNS", "value": 37.3, "unit": "µM"}, {"measurement": "TGI", "setting": "SK-MEL-2 melanoma", "value": 35.1, "unit": "µM"}, {"measurement": "TGI", "setting": "SK-MEL-5 melanoma", "value": 30.5, "unit": "µM"}, {"measurement": "TGI", "setting": "SK-OV-3 ovarian", "value": "> 100", "unit": "µM"}, {"measurement": "TGI", "setting": "SN12C renal", "value": 23.6, "unit": "µM"}, {"measurement": "TGI", "setting": "SNB-19 CNS", "value": 31.2, "unit": "µM"}, {"measurement": "TGI", "setting": "SW-620 colon", "value": 31.5, "unit": "µM"}, {"measurement": "TGI", "setting": "TK-10 renal", "value": 42, "unit": "µM"}, {"measurement": "TGI", "setting": "UACC-62 melanoma", "value": 28.2, "unit": "µM"}, {"measurement": "TGI", "setting": "UO-31 renal", "value": 25.4, "unit": "µM"}]}]}
